Test results published in US20050014811A1, “Substituted benzimidazole compounds and their use for the treatment of cancer” (Aventis Pharma S.A., priority 2001, published 2005).

Key:
CDK2/CyclinE = CDK2/CyclinE (Homo sapiens, UniProt P24941); assay: CDK2/CyclinE Flashplate assay, 96-well format, biotinylated-Rb peptide substrate; type: biochemical
Method in brief: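 Biotinylated Rb peptide was captured on streptavidin Flashplates, and CDK2/CyclinE (200 ng/well) was preincubated 30 min on ice with inhibitor at 10, 3, 1, 0.3 or 0.1 μM final. Reactions ran 45 min at RT with 1 μM ATP plus 1 μCi ^33P-ATP. After washing, incorporated ^33P was counted, in duplicate.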

CDK4/CyclinD1 = CDK4/CyclinD1 (Homo sapiens, UniProt P11802); assay: CDK4/CyclinD1 Flashplate assay, 96-well format, biotinylated-Rb peptide substrate; type: biochemical
Method in brief: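 Biotinylated Rb peptide bound to streptavidin Flashplate; CDK4/CyclinD1 (70 ng/well) preincubated 30 min on ice with compound at 10, 3, 1, 0.3 and 0.1 μM final. Reaction with 1 μM cold ATP plus 33P-ATP for 45 min at RT; incorporated 33P counted, duplicates.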

Chain of CDK4/CyclinD1 (P11802 whole entry, species assumed): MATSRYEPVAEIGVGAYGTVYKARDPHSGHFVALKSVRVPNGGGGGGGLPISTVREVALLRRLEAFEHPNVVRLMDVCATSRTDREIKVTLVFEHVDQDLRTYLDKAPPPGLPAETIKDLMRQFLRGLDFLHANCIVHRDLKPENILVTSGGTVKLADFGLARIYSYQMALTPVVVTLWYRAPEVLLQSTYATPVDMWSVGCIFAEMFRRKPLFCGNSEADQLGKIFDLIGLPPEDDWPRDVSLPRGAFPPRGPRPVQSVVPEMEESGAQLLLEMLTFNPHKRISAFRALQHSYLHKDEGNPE
Chain of CDK4/CyclinD1 (P24385 whole entry partner, species assumed): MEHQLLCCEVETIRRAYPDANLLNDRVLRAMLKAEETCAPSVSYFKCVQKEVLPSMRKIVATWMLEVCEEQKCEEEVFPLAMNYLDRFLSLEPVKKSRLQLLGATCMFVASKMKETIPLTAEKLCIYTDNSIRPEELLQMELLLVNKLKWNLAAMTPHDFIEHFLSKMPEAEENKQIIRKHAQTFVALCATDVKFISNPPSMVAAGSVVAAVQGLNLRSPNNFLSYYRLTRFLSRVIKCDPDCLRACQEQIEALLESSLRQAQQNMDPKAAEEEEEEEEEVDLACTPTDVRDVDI

| IC50 (CDK2/CyclinE) | IC50 (CDK4/CyclinD1) | inhibition at 10 µM (CDK4/CyclinD1) | Structure (SMILES) |
| --- | --- | --- | --- |
| 110 nM | 750 nM |  | O=C(NCCNCCO)Nc1nc2cc(OS(=O)(=O)c3ccc(NCC4CCCO4)cc3)ccc2[nH]1 (stereo not drawn) [Example 59-q, 4-[(Tetrahydro-furan-2-ylmethyl)-amino]-benzenesulfonic acid 2-{3-[2-(2-hydroxy-ethylamino)-ethyl]-ureido}-1H-benzoimidazol-5-yl ester] |
| 36 nM | 130 nM |  | O=C(NCCS(=O)(=O)O)Nc1nc2cc(OS(=O)(=O)c3ccc(NCC4CCCO4)cc3)ccc2[nH]1 (stereo not drawn) [Example 59-n, 4-[(Tetrahydro-furan-2-ylmethyl)-amino]-benzenesulfonic acid 2-[3-(2-sulfo-ethyl)-ureido]-1H-benzoimidazol-5-yl ester] |
| 60 nM | 600 nM |  | CCNC(=O)Nc1nc2cc(OS(=O)(=O)c3ccc(NC4CCCC4)cc3)ccc2[nH]1 [Example 45, 4-Cyclopentylamino-benzenesulfonic acid 2-(3-ethyl-ureido)-1H-benzoimidazol-5-yl ester] |
| 2000 nM | 400 nM |  | COCCCNc1ccc(S(=O)(=O)Oc2ccc3[nH]c(NC(=O)OC)nc3c2)cc1 [Example 13, Methyl-5-(4-[3-methoxypropyl]aminophenyl-sulfonyloxy) benzimidazole-2-carbamate] |
| 70 nM | 1000 nM |  | O=C(NCc1ccccc1)Nc1nc2cc(OS(=O)(=O)c3ccc(-n4ccnc4)cc3)ccc2[nH]1 [Example 57-l, 4-Imidazol-1-yl-benzenesulfonic acid 2-(3-benzyl-ureido)-1H-benzoimidazol-5-yl ester] |
| 20 nM | 12 nM |  | NC(=O)CNC(=O)Nc1nc2cc(OS(=O)(=O)c3ccc(NC4CCCC4)cc3)ccc2[nH]1 [Example 58-s, 4-Cyclopentylamino-benzenesulfonic acid 2-(3-carbamoylmethyl-ureido)-1H-benzoimidazol-5-yl ester] |
| 130 nM | 840 nM |  | COc1ccc(Nc2nc3cc(OS(=O)(=O)c4ccc(NC5CCCC5)cc4)ccc3[nH]2)cc1OC [Example 69, 4-cyclopentylamino-benzenesulfonic acid 2-(3,4-dimethoxy-phenylamino)-1H-benzoimidazol-5-yl ester] |
| 120 nM | 1100 nM |  | CCCCNC(=O)Nc1nc2cc(OS(=O)(=O)c3ccc(NC4CCCC4)cc3)ccc2[nH]1 [Example 35, 4-Cyclopentylamino-benzenesulfonic acid 2-(3-butyl-ureido)-1H-benzoimidazol-5-yl ester] |
| 4 nM | 300 nM |  | O=C(NCc1cccnc1)Nc1nc2cc(OS(=O)(=O)c3ccc(NCC4CCCO4)cc3)ccc2[nH]1 (stereo not drawn) [Example 59-l, 4-[(Tetrahydro-furan-2-ylmethyl)-amino]-benzenesulfonic acid 2-(3-pyridin-3-ylmethyl-ureido)-1H-benzoimidazol-5-yl ester] |
| 15 nM | 500 nM |  | O=C(NCCCCO)Nc1nc2cc(OS(=O)(=O)c3ccc(NCC4CCCO4)cc3)ccc2[nH]1 (stereo not drawn) [Example 59-d, 4-[(Tetrahydro-furan-2-ylmethyl)-amino]-benzenesulfonic acid 2-[3-(4-hydroxy-butyl)-ureido]-1H-benzoimidazol-5-yl ester] |
| 80 nM | 240 nM |  | CCN(CC)CCNC(=O)Nc1nc2cc(OS(=O)(=O)c3ccc(NC4CCCC4)cc3)ccc2[nH]1 [Example 58-am, 4-Cyclopentylamino-benzenesulfonic acid 2-[3-(2-diethylamino-ethyl)-ureido]-1H-benzoimidazol-5-yl ester] |
| 40 nM | 390 nM |  | O=C(NCCCN1CCCC1)Nc1nc2cc(OS(=O)(=O)c3ccc(NC4CCCC4)cc3)ccc2[nH]1 [Example 58-ag, 4-Cyclopentylamino-benzenesulfonic acid 2-[3-(3-pyrrolidin-1-yl-propyl)-ureido]-1H-benzoimidazol-5-yl ester] |
| 200 nM | 1900 nM |  | CC(C)CNC(=O)Nc1nc2cc(OS(=O)(=O)c3ccc(NC4CCCC4)cc3)ccc2[nH]1 [Example 43, 4-Cyclopentylamino-benzenesulfonic acid 2-(3-isobutyl-ureido)-1H-benzoimidazol-5-yl ester] |
| 1600 nM |  | 84% | O=C(Nc1cccc(F)c1)Nc1nc2cc(OS(=O)(=O)c3ccc(NC4CCCC4)cc3)ccc2[nH]1 [Example 58-d, 4-Cyclopentylamino-benzenesulfonic acid 2-[3-(3-fluoro-phenyl)-ureido]-1H-benzoimidazol-5-yl ester] |
| 800 nM |  | 83% | CC(C)(C)NC(=O)Nc1nc2cc(OS(=O)(=O)c3ccc(NC4CCCC4)cc3)ccc2[nH]1 [Example 53, 4-Cyclopentylamino-benzenesulfonic acid 2-(3-tert-butyl-ureido)-1H-benzoimidazol-5-yl ester] |
| 300 nM | 650 nM |  | COc1ccc(Nc2nc3cc(OS(=O)(=O)c4ccc(NC5CCCC5)cc4)ccc3[nH]2)cc1 [Example 70-d, 4-Cyclopentylamino-benzenesulfonic acid 2-(4-methoxy-phenylamino)-1H-benzoimidazol-5-yl ester] |
| 40 nM | 800 nM |  | O=C(Nc1nc2cc(OS(=O)(=O)c3ccc(NCC4CCCO4)cc3)ccc2[nH]1)NC1CCC1 (stereo not drawn) [Example 59-o, 4-[(Tetrahydro-furan-2-ylmethyl)-amino]-benzenesulfonic acid 2-(3-cyclobutyl-ureido)-1H-benzoimidazol-5-yl ester] |
| 120 nM | 1180 nM |  | CC(C)NC(=O)Nc1nc2cc(OS(=O)(=O)c3ccc(NC4CCCC4)cc3)ccc2[nH]1 [Example 34, 4-Cyclopentylamino-benzenesulfonic acid 2-(3-isopropyl-ureido)-1H-benzoimidazol-5-yl ester] |
| 220 nM | 1800 nM |  | O=C(NCCN1CCCCC1)Nc1nc2cc(OS(=O)(=O)c3ccc(NCC4CCCO4)cc3)ccc2[nH]1 (stereo not drawn) [Example 59-r, 4-[(Tetrahydro-furan-2-ylmethyl)-amino]-benzenesulfonic acid 2-[3-(2-piperidin-1-yl-ethyl)-ureido]-1H-benzoimidazol-5-yl ester] |
| 900 nM | 1800 nM |  | CNC(=O)Nc1nc2cc(OS(=O)(=O)c3ccc(-n4ccnc4)cc3)ccc2[nH]1 [Example 30, N-[5-(4-[imidazolyl]-phenylsulfonyloxy)-1H-benzimidazole-2-yl]-methylurea] |
| 140 nM | 800 nM |  | O=C(Nc1nc2cc(OS(=O)(=O)c3ccc(NC4CCCC4)cc3)ccc2[nH]1)NC1CCC1 [Example 51, 4-Cyclopentylamino-benzenesulfonic acid 2-(3-cyclobutyl-ureido)-1H-benzoimidazol-5-yl ester] |
| 42 nM | 600 nM |  | O=C(Nc1nc2cc(OS(=O)(=O)c3ccc(NC4CCCC4)cc3)ccc2[nH]1)C1CC1 [Example 27, 4-Cyclopentylamino-benzenesulfonic acid 2-(cyclopropanecarbonyl-amino)-1H-benzoimidazol-5-yl ester] |
| 100 nM | 340 nM |  | O=C(NCCNCCO)Nc1nc2cc(OS(=O)(=O)c3ccc(NC4CCCC4)cc3)ccc2[nH]1 [Example 58-aa, 4-Cyclopentylamino-benzenesulfonic acid 2-{3-[2-(2-hydroxy-ethylamino)-ethyl]-ureido}-1H-benzoimidazol-5-yl ester] |
| 100 nM | 200 nM |  | COC(=O)[C@H](CO)NC(=O)Nc1nc2cc(OS(=O)(=O)c3ccc(NC4CCCC4)cc3)ccc2[nH]1 [Example 58-an, 2-{3-[5-(4-Cyclopentylamino-benzenesulfonyloxy)-1H-benzoimidazol-2-yl]-ureido}-3S-hydroxy-propionic acid methyl ester] |
| 200 nM | 300 nM |  | CNc1ccc(S(=O)(=O)Oc2ccc3[nH]c(NC(=O)OC)nc3c2)cc1 [Example 14, Methyl-5-(4-methylaminophenylsulfonyloxy) benzimidazole-2-carbamate] |
| 40 nM | 1200 nM |  | O=C(NCCN1CCOCC1)Nc1nc2cc(OS(=O)(=O)c3ccc(NCC4CCCO4)cc3)ccc2[nH]1 (stereo not drawn) [Example 59-i, 4-[(Tetrahydro-furan-2-ylmethyl)-amino]-benzenesulfonic acid 2-[3-(2-morpholin-4-yl-ethyl)-ureido]-1H-benzoimidazol-5-yl ester] |
| 600 nM |  | 49% | CN1CCN(CCCNC(=O)Nc2nc3cc(OS(=O)(=O)c4ccc(-n5ccnc5)cc4)ccc3[nH]2)CC1 [Example 57-k, 4-Imidazol-1-yl-benzenesulfonic acid 2-{3-[3-(4-methyl-piperazin-1-yl)-propyl]-ureido}-1H-benzoimidazol-5-yl ester] |
| 300 nM |  | 90% | O=C(NCCO)Nc1nc2cc(OS(=O)(=O)c3ccc(-n4ccnc4)cc3)ccc2[nH]1 [Example 57-e, 4-Imidazol-1-yl-benzenesulfonic acid 2-[3-(2-hydroxy-ethyl)-ureido]-1H-benzoimidazol-5-yl ester] |
| 250 nM | 190 nM |  | CC(C)(N)CNC(=O)Nc1nc2cc(OS(=O)(=O)c3ccc(NC4CCCC4)cc3)ccc2[nH]1 [Example 58-w, 4-Cyclopentylamino-benzenesulfonic acid 2-[3-(2-amino-2-methyl-propyl)-ureido]-1H-benzoimidazol-5-yl ester] |
| 13 nM | 170 nM |  | O=C(NCCCN1CCCC1=O)Nc1nc2cc(OS(=O)(=O)c3ccc(NC4CCCC4)cc3)ccc2[nH]1 [Example 58-ac, 4-Cyclopentylamino-benzenesulfonic acid 2-{3-[3-(2-oxo-pyrrolidin-1-yl)-propyl]-ureido}-1H-benzoimidazol-5-yl ester] |
